# ChEMBL document CHEMBL1201862, “PubChem BioAssay data set” (2004)
#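 Following 48 hours of exposure in 96-well plates, responses at five concentrations were used to interpolate endpoints linearly. At the GI50, growth is halved.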 Active and inactive are the calls of the source. No stated cut-off is given here; in the data, active = GI50 up to about 1.1 µM and inactive = higher.
# What was measured:
# Experiment in all cases: NCI-60 cell line screen, 48 h
# [1] = test system: EKVX
# [2] = test system: HCC 2998
# [3] = test system: HOP-62
# [4] = test system: HOP-92
# [5] = test system: HT-29
# [6] = test system: K562
# [7] = test system: KM12
# [8] = test system: LOX IMVI
# [9] = test system: MCF7
# [10] = test system: NCI-H226
# [11] = test system: OVCAR-5
# [12] = test system: RPMI-8226
# [13] = test system: SF-295
# [14] = test system: SK-MEL-2
# [15] = test system: SK-MEL-5
# [16] = test system: SK-OV-3
# [17] = test system: SW-620
# [18] = test system: TK-10
# [19] = test system: UACC-257
# [20] = test system: UACC-62
SMILES,GI50 [1],GI50 [2],GI50 [3],GI50 [4],GI50 [5],GI50 [6],GI50 [7],GI50 [8],GI50 [9],GI50 [10],GI50 [11],GI50 [12],GI50 [13],GI50 [14],GI50 [15],GI50 [16],GI50 [17],GI50 [18],GI50 [19],GI50 [20]
COc1ccc2c(c1)[n+]([O-])c(/C(C)=N/NC(N)=S)c(C)[n+]2[O-],44 µM (inactive),20.5 µM (inactive),75.3 µM (inactive),> 85.9 µM (inactive),52.1 µM (inactive),41.5 µM (inactive),> 85.9 µM (inactive),39.9 µM (inactive),41.4 µM (inactive),> 61.7 µM (inactive),> 88.5 µM (inactive),57 µM (inactive),63.1 µM (inactive),> 96.4 µM (inactive),41.2 µM (inactive),> 100 µM (inactive),50.4 µM (inactive),> 58.9 µM (inactive),> 60.3 µM (inactive),44.8 µM (inactive)
CN(NC(=O)c1ccc(Cl)cc1)C1=NCCCCN1,> 100 µM (inactive),> 100 µM (inactive),> 100 µM (inactive),> 100 µM (inactive),> 100 µM (inactive),> 100 µM (inactive),> 100 µM (inactive),> 100 µM (inactive),> 100 µM (inactive),> 100 µM (inactive),> 100 µM (inactive),> 100 µM (inactive),> 100 µM (inactive),> 100 µM (inactive),> 100 µM (inactive),> 100 µM (inactive),> 100 µM (inactive),> 100 µM (inactive),> 100 µM (inactive),> 100 µM (inactive)
CCOC(=O)C(CC(C)C)NC(=O)C(Cc1ccc(N(CCCl)CCCl)cc1)NC(C)=O (stereo not given),11.1 µM (inactive),13.2 µM (inactive),3.01 µM (inactive),0.63 µM (active),11.7 µM (inactive),4.81 µM (inactive),20.7 µM (inactive),2.68 µM (inactive),3.69 µM (inactive),14.4 µM (inactive),12.7 µM (inactive),2.82 µM (inactive),7.05 µM (inactive),2.45 µM (inactive),3.3 µM (inactive),15.8 µM (inactive),7.73 µM (inactive),15.2 µM (inactive),3.74 µM (inactive),1.4 µM (inactive)
Clc1ccc(C(Cc2ccccc2)c2c(Cl)nc(N3CCNCC3)nc2Cl)cc1 (stereo not given),17.9 µM (inactive),6.3 µM (inactive),15.7 µM (inactive),8.57 µM (inactive),2.64 µM (inactive),3.46 µM (inactive),7.89 µM (inactive),3.46 µM (inactive),5.38 µM (inactive),22.8 µM (inactive),17.7 µM (inactive),13.7 µM (inactive),19 µM (inactive),16.8 µM (inactive),14.7 µM (inactive),17.7 µM (inactive),14.5 µM (inactive),17.5 µM (inactive),15.7 µM (inactive),21 µM (inactive)
COC(=O)Nc1nc2ccc(S(=O)(=O)SC)cc2[nH]1,8.69 µM (inactive),10.4 µM (inactive),21.1 µM (inactive),6.35 µM (inactive),3.28 µM (inactive),4.86 µM (inactive),5.45 µM (inactive),4.78 µM (inactive),4.94 µM (inactive),6.27 µM (inactive),11.6 µM (inactive),3.84 µM (inactive),7.8 µM (inactive),7.19 µM (inactive),5.28 µM (inactive),8.39 µM (inactive),3.73 µM (inactive),8.09 µM (inactive),10.8 µM (inactive),3.9 µM (inactive)
CC1(C)OCC(C2OC3OC(C)(C)OC3C2c2ccccc2)O1 (stereo not given),49 µM (inactive),> 100 µM (inactive),49 µM (inactive),17.6 µM (inactive),39.6 µM (inactive),30.2 µM (inactive),82.4 µM (inactive),32.1 µM (inactive),50.7 µM (inactive),22.4 µM (inactive),91.6 µM (inactive),48.8 µM (inactive),> 100 µM (inactive),22.1 µM (inactive),17.1 µM (inactive),> 100 µM (inactive),32.8 µM (inactive),32.1 µM (inactive),36.1 µM (inactive),27 µM (inactive)
COC(=O)C1(C)OC(C)=NC1(C(=O)OC)C(=O)OC (stereo not given),> 100 µM (inactive),> 100 µM (inactive),> 100 µM (inactive),1.45 µM (inactive),> 100 µM (inactive),> 100 µM (inactive),> 100 µM (inactive),> 100 µM (inactive),> 100 µM (inactive),> 100 µM (inactive),> 100 µM (inactive),> 100 µM (inactive),> 100 µM (inactive),> 100 µM (inactive),> 100 µM (inactive),> 100 µM (inactive),> 100 µM (inactive),> 100 µM (inactive),> 100 µM (inactive),> 100 µM (inactive)
O=C1C(S(=O)(=O)c2ccccc2)=C(CS(=O)(=O)c2ccccc2)[C@@H](OCc2ccccc2)[C@@H]1OCc1ccccc1,27.2 µM (inactive),18.9 µM (inactive),19 µM (inactive),12.4 µM (inactive),13.5 µM (inactive),14.4 µM (inactive),0.0519 µM (active),15.8 µM (inactive),27.4 µM (inactive),17.6 µM (inactive),27.9 µM (inactive),11.6 µM (inactive),18.7 µM (inactive),16.2 µM (inactive),18.2 µM (inactive),41.5 µM (inactive),18.7 µM (inactive),31.8 µM (inactive),21.6 µM (inactive),17.3 µM (inactive)
COC(=O)CCc1ccc2c(c1)[C@H](C(=O)OC)[C@@H](c1ccc(O)cc1)O2,> 100 µM (inactive),> 100 µM (inactive),> 100 µM (inactive),> 100 µM (inactive),> 100 µM (inactive),61.1 µM (inactive),> 100 µM (inactive),> 100 µM (inactive),72.9 µM (inactive),25.5 µM (inactive),> 100 µM (inactive),75.5 µM (inactive),> 100 µM (inactive),> 100 µM (inactive),40.1 µM (inactive),> 100 µM (inactive),> 100 µM (inactive),> 100 µM (inactive),> 100 µM (inactive),> 100 µM (inactive)
